Data: patent US20210379035A1, “Methods Of Treating Fabry Patients Having Renal Impairment” (Amicus Therapeutics, Inc., priority 2017, published 2021)

System: Fabry patients
Experiment: Long-term analysis of 12 patients that completed multiple studies: eGFR
Assay type: in vivo, human
Conditions: 11 patients who received migalastat HCl 150 mg QOD for ≥17 months (mean exposure, 4-5 years)
Source text: In addition to the studies described above, other patients also received migalastat therapy in other studies such as dose-finding studies and/or long-term extension studies. […] 12 patients that completed multiple studies were further analyzed. Linear regression was used to calculate the annualized rate of change in […] from baseline.

Cl.OC[C@H]1NC[C@H](O)[C@@H](O)[C@H]1O [migalastat HCl, migalastat hydrochloride]
annualized mean change in eGFRCKD-EPI: 0.24 mL/min/1.72 m^2
